System: DMBA-4 metastatic transplantable rat mammary tumor
Assay: Survival of rats with tumor transplant after laser/sensitizer assisted immunotherapy
Assay type: in vivo, Wistar Furth female rats
Source text: A diode laser was used in this study. The Industrial Semiconductor Laser ISL50F (McDonnell Douglas Aerospace, St. Louis, Mo.), employs a diode array that is electrically powered by a diode driver. The laser emits radiation at wavelength of 808±10 nm, either in pulsed or in continuous mode. Its maximum near infrared power in the available configuration output is 35 watts. The laser is operated with standard electric power (110/120 VAC). A microprocessor monitors and adjusts the laser operating parameters. Laser energy can be delivered through optical fibers of various sizes. A red laser diode emits 670 nm light at 0.9 mW as the aiming beam. The continuous wave mode was employed in this experiment.
In the experiment, different power and duration of laser irradiation, ranging from 3 minutes at 5 watts to 5 minutes at 15 watts, were used. The output power was measured before, during and after the procedure using a Joule/Watt meter (Ophir Optics, Israel). Two types of fiber optics were used: 600 μm and 1200 μm in diameter.
Wistar Furth female rats, age 6 to 7 weeks and weighing 100 to 125 grams, were chosen for the study. The model is a metastatic transplantable rat mammary tumor. The tumor strain was the DMBA-4. Tumor cells (about 25,000 cells) were transplanted to the rats by injection into the superficial inguinal area between the skin and the muscle layer. Certain selected rats were injected with tumor cells in both left and right inguinal areas for simultaneous tumor growth.
The rats were fed a special food, a high saturated fat diet, to facilitate the growth of the tumor. The tumor usually grew to about 1 to 4 cm^3 within 10 to 14 days of tumor transplantation. In most cases the rat tumors were treated before they grew beyond 5 cm^3.
Before laser treatment, anesthesia was applied (100 μl xylazine and ketamine solution IM) and the hair overlaying the tumor was clipped and shaved. After the treatment, the rats were maintained in separate cages and still fed with the same high fat diet. […]

**Q.** How did the “effect on survival rate” value (second group, treated by laser with ICG-H2O solution, vs control) turn out when `CC1(C)C(/C=C/C=C/C=C/C=C2\N(CCCCS(=O)(=O)O)c3ccc4ccccc4c3C2(C)C)=[N+](CCCCS(=O)(=O)[O-])c2ccc3ccccc3c21` [ICG-H2O, indocyanine green] was run?
**A.** did not show any improvement on the survival rate

**Q.** What about the “Survival Days” value (whole group, laser treated, data up to Jan. 16, 1995) of the same molecule?
**A.** 29.0 ± 3.5 days

**Q.** What about the “average survival time after the tumor transplant” value (whole group, laser treated, up to Apr. 1, 1995) of the same molecule?
**A.** 29.0 days

— US20050106153A1, “Combined physical and immunotherapy for cancer” (WOUND HEALING OF OKLAHOMA, priority 1995, published 2005)
